The results in this text go back to patent publication US20190351012A1, “TARGETING OF INTERFERON-STIMULATED GENE EXPRESSION TO TREAT INTERFERONOPATHIES” (New York University, priority 2018, published 2019).

The test deals with p21^Cip1/wAF1 expression in HeLa cells. The test can be described thus: p21 Cip1/WAF1 expression in HeLa cells, real-time RT-PCR (control for HDAC inhibition). The class given is cell-based, human. The conditions noted are these: IFN-α 6 h, FIG. 1B. The method, then:
FIG. 1. Class I HDAC mediates ISG expression. (A, B) HeLa cells were treated with IFN-α for 6 h in the absence or presence of increasing concentrations of Romidepsin or TSA, as indicated. RNA was quantified by real-time RT-PCR for ISG54 and p21^wAF1/Cip1 expression, normalized to GAPDH, and represented as fold induction over untreated cells. (C) HeLa cells were treated with IFN-α for 6 h in the absence or presence of increasing concentrations of romidepsin, RGFP966, or RGFP233, as indicated. RNA was quantified by real-time RT-PCR for IRF9 expression, normalized to GAPDH and represented as fold induction over untreated cells. HEK293 cells were transfected with siRNA against HDAC1, HDAC2, or E2F4 separately (D) or with a combination of HDAC1 and HDAC2 targeting oligonucleotides (E) and cells were stimulated with IFN-α for 6 h (α) in the presence (αT) or absence of TSA, as indicated. Whole cell extracts were analyzed for expression of the indicated proteins by western blotting (left panels). ISG54 expression was quantified by real-time RT-PCR, and represented as fold induction over untreated cells (right panels). (F) HEK293T cells were transfected with pcDNA3 (Ctl), HDAC1, or HDAC2 expression constructs, and ISG54 expression was quantified after stimulation with IFN-α for 10 h. […] Nuclear extracts were analyzed for expression of Sin3B by western blotting (middle panels). […]
On the technique in general: Real-time PCR tracks product formation cycle by cycle.

With `CC(/C=C/C(=O)NO)=C\[C@@H](C)C(=O)c1ccc(N(C)C)cc1` [TSA, Trichostatin A], the “p21 Cip1/WAF1 expression” value was “led to p21^Cip1/wAF1 expression”.
